Source: patent US9675694B2, “Polycyclic agents for the treatment of respiratory syncytial virus infections” (Biota Scientific Management Pty Ltd., priority 2006, dated 2017)

The compounds below were run on RSV A2 (assay: RSV antiviral cytopathic effect (CPE) assay, MTT readout). Details: human respiratory syncytial virus, HEp-2, 120 h; HEp2 cells infected with RSV A2, moi ~0.01, 5 days; compounds of Table 2; read-out: Activity Range (EC50, RSV A2 antiviral).
Assay type: cell-based
Method: Biological Data Method P: RSV Antiviral Assay Protocol
Compounds of the invention were tested for their antiviral activity against respiratory syncytial virus. Cytopathic effect (CPE) assays were performed essentially as described in the literature (see for example Watanabe et al, 1994, J. Virological Methods, 48:257). Serial dilutions of the test compounds were made in 96 well plates. HEp2 cells (1.0×10^4 cells/well) were infected with RSV at a low multiplicity of infection (e.g. RSV A2 at an moi of ˜0.01) and added to plates to assess antiviral activity. Uninfected HEp2 cells were used to assess compound cytotoxicity. Assays were incubated for 5 days at 37° C. in a 5% CO2 atmosphere. The extent of CPE was determined via metabolism of the vital dye 3-(4, 5-dimethylthiaxol-2-yl)-2,5-diphenyltetrazolium bromide (MTT). MTT (1 mg/ml) was added to each well and plates incubated for 2 hours incubation at 37° C. Wells were aspirated, iso-propanol (200 μL) was added and absorbance values read at 540/690 nm. Compound concentrations that inhibited CPE by 50% (EC50) and developed cytotoxicity (CC50) were calculated using non-linear regression analysis.

Row | EC50 | Structure (SMILES)
1 | 0.25 to 1 µM | Cn1cc(C(=O)N2CCN3C(=O)c4ccccc4CC32c2ccc(Cl)cc2)c(C(F)(F)F)n1 (stereo not drawn) [Compound 1-029]
2 | 1 to 5 µM | O=C(c1ccno1)N1CCN2C(=O)c3ccccc3CC12c1ccc(Cl)cc1 (stereo not drawn) [Compound 1-025]
3 | > 5 µM | O=C(c1ccc(F)cc1)N1CCN2C(=O)c3ccccc3CC12c1ccc(Cl)cc1 (stereo not drawn) [Compound 1-005]
4 | < 0.25 µM | O=C(c1ccoc1)N1CCN2C(=O)c3cccnc3CC12c1ccc(Cl)cc1 (stereo not drawn) [Compound 1-043]
5 | 0.25 to 1 µM | O=C(c1ccoc1)N1CCN2C(=O)c3ccncc3CC12c1ccc(Cl)cc1 (stereo not drawn) [Compound 1-010]
6 | 0.25 to 1 µM | O=C(c1csc(-c2cccnc2)n1)N1CCN2C(=O)c3ccccc3CC12c1ccccc1 (stereo not drawn) [Compound 1-002]
7 | < 0.25 µM | O=C(c1cccs1)N1CCN2C(=O)c3cccnc3CC12c1ccc(Cl)cc1 (stereo not drawn) [Compound 1-101]
8 | 0.25 to 1 µM | O=C(CNS(=O)(=O)c1ccc(F)cc1)N1CCN2C(=O)c3ccccc3CC12c1ccc(Cl)cc1 (stereo not drawn) [Compound 1-079, N-{2-[10a-(4-Chlorophenyl)-5-oxo-2,3,10,10a-tetrahydro-5H-imidazo[1,2-b]isoquinolin-1-yl]-2-oxoethyl}-4-fluorobenzenesulfonamide]
9 | 1 to 5 µM | O=C(c1cccnc1)N1CCN2C(=O)c3ccccc3CC12c1ccc(Cl)cc1 (stereo not drawn) [Compound 1-008, 10a-(4-Chlorophenyl)-1-(pyridine-3-carbonyl)-2,3,10,10a-tetrahydro-1H-imidazo[1,2-b]isoquinolin-5-one]
10 | 1 to 5 µM | O=C(c1ccc(F)cc1)N1CCN2C(=O)c3ncccc3CC12c1ccc(Cl)cc1 (stereo not drawn) [Compound 1-109]
11 | < 0.25 µM | O=C(c1ccoc1)N1CCN2C(=O)c3cccc(F)c3CC12c1ccc(Cl)cc1 (stereo not drawn) [Compound 1-071]
12 | < 0.25 µM | O=C(c1ccoc1)N1CCN2C(=O)c3ccccc3CC12c1ccc(Cl)cc1 (stereo not drawn) [Compound 1-006]
13 | < 0.25 µM | Cn1cc(C(=O)N2CCN3C(=O)c4cccc(F)c4CC23c2ccc(Cl)cc2)c(C(F)(F)F)n1 (stereo not drawn) [Compound 1-087]
14 | 1 to 5 µM | O=C(c1ccc(F)nc1)N1CCN2C(=O)c3ccccc3CC12c1ccc(Cl)cc1 (stereo not drawn) [Compound 1-007]
15 | 1 to 5 µM | CCC(=O)N1CCN2C(=O)c3ccccc3CC12c1ccc(Cl)cc1 (stereo not drawn) [Compound 1-077]
16 | 0.25 to 1 µM | COc1ccc(CC(=O)N2CCN3C(=O)c4ccccc4CC23c2ccc(Cl)cc2)cc1 (stereo not drawn) [Compound 1-069]
17 | 0.25 to 1 µM | O=C(c1cccnc1)N1CCN2C(=O)c3ccc(F)cc3CC12c1ccc(Cl)cc1 (stereo not drawn) [Compound 1-083]
18 | 0.25 to 1 µM | O=C(c1cccnc1)N1CCN2C(=O)c3ccccc3CC12c1ccccc1 (stereo not drawn) [Compound 1-003]
19 | 0.25 to 1 µM | O=C(NCCc1ccccc1)N1CCN2C(=O)c3cccnc3CC12c1ccc(Cl)cc1 (stereo not drawn) [Compound 1-015]
20 | 0.25 to 1 µM | O=C1c2ccccc2CC2(c3ccc(Cl)cc3)N1CCN2C(=O)c1sccc1Cl (stereo not drawn) [Compound 1-019]
21 | 0.25 to 1 µM | O=C(c1ccc(F)cc1)N1CCN2C(=O)c3cccc(F)c3CC12c1ccc(Cl)cc1 (stereo not drawn) [Compound 1-073]
22 | 1 to 5 µM | O=C(Cc1ccccn1)N1CCN2C(=O)c3ccccc3CC12c1ccc(Cl)cc1 (stereo not drawn) [Compound 1-066]
23 | 1 to 5 µM | O=C(c1cccnc1)N1CCN2C(=O)c3cccnc3CC12c1ccc(Cl)cc1 (stereo not drawn) [Compound 1-014]
24 | 0.25 to 1 µM | O=C(c1ccc(F)cc1)N1CCN2C(=O)c3ccccc3CC12c1ccccc1 (stereo not drawn) [Compound 1-001]
